In paper PMC10065799, “High-throughput profiling of sequence recognition by tyrosine kinases and SH2 domains using bacterial peptide display” (eLife, 2023):

Experiments:
Test in all cases: pTyr-Var library bacterial peptide display kinase screen (enrichment scores)
c-Abl kinase domain = target: T1, c-Abl kinase domain (Mus musculus, UniProt P00520); format: biochemical;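 note: log2 fold change in enrichment of variant over reference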
T1 sequence (P00520 242-493 limits assumed): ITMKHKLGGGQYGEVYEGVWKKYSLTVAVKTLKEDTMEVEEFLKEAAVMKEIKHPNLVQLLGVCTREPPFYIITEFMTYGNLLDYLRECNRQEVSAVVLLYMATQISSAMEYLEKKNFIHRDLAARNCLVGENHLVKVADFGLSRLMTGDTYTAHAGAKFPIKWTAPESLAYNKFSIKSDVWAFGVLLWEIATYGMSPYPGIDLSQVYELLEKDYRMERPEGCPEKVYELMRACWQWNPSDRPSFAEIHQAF

c-Src kinase domain = c-Src kinase domain (Homo sapiens, UniProt P12931); format: biochemical; conditions: sheet "Src";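 note: log2 fold change in enrichment of variant over reference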
EPHB1 kinase domain = format: biochemical, human; conditions: for Screen: sheet EPHB1, effect of the variant peptide relative to its reference peptide in the pTyr-Var library screen (enrichment scores); for Screen (variant relative to reference peptide, measured in the pTyr-Var library screen): sheet "EPHB1", variant seq vs reference seq, bacterial peptide display enrichment
EPHB2 kinase domain = format: biochemical, human; conditions: sheet EPHB2; effect of variant peptide relative to its reference peptide in the pTyr-Var library screen (enrichment scores)
Fer kinase domain = format: biochemical, mouse; conditions: sheet "Fer"
[1] = fig5-data2, sheet "Abl", Screen for the variant/reference peptide pair, pTyr-Var library
[2] = effect of the variant peptide relative to its reference peptide in the pTyr-Var library screen
[3] = sheet "Abl", effect of variant peptide relative to its reference peptide in pTyr-Var library screen (enrichment)
[4] = variant peptide versus its reference peptide in the pTyr-Var library screen
[5] = value of the variant peptide against its reference peptide in the pTyr-Var library screen with Fer

LEIETYRRLRD [KRT12_Y429_L433R]
Screen (c-Abl kinase domain; [1]): 0.7498

LERFIYNPEEF [HLA-DPB1_Y59_R61P_YF]
Screen (c-Src kinase domain; [2]): 0.2405

LFEDRYLLGPS [ASS1_Y87_T91P_YF]
Screen (EPHB1 kinase domain): -1.226 | Screen (EPHB2 kinase domain): -0.4556

LKLKAYRFSIS [LCT_Y974_V971L]
Screen (c-Src kinase domain; [2]): 1.678

LLTALYFISWG [KCNH2_Y780_R784W]
Screen (c-Src kinase domain; [2]): 0.3693

LMFPDYLPCSV [SAG_Y129_T125M]
Screen (c-Abl kinase domain; [3]): 0.9994

LMQAEYWHDPI [PPT1_Y185_V181M]
Screen (c-Abl kinase domain; [1]): 0.6191

LNCDRYSAGLL [PDE6A_Y275_V277A]
Screen (EPHB2 kinase domain): -1.197

LPVHFYSHVEH [PYGM_Y204_G205S]
Screen (Fer kinase domain; variant peptide relative to its reference peptide, pTyr-Var library screen enrichment): -0.5676

LSEEKYELKEG [TREM1_Y29_T25S]
Screen (c-Abl kinase domain; [3]): -1.268

LVIIKYLPEWT [PSEN1_Y240_F237I]
Screen (EPHB1 kinase domain): 1.338 | Screen (EPHB2 kinase domain): 1.457

LWQTIYNLEAE [TNNT2_Y251_S249T]
Screen (c-Src kinase domain; [4]): 0.4505

MSGDVYSTDFF [NTRK2_Y702_R699G_YF]
Screen (c-Src kinase domain; [4]): 0.7528

NDENIYKGLPD [VAV3_Y141_D139N]
Screen (c-Src kinase domain; [4]): 1.088

NFFDLYGGEKF [PTPN11_Y66_D61N_YF]
Screen (c-Src kinase domain; [4]): -0.03521

NNFGNYNNQSS [HNRNPA1_Y318_D314N]
Screen (c-Abl kinase domain; [1]): 1.57

PDSVDYPKKGF [CTSK_Y121_R122P_YF]
Screen (c-Src kinase domain; [2]): 2.065 | Screen (c-Abl kinase domain; [1]): -1.054 | Screen (Fer kinase domain; [5]): 0.978

PLDAEYFTLQI [TP53_Y327_G325A]
Screen (c-Src kinase domain; [4]): 0.1358

PLQHVYKIGGI [EEF1A2_Y254_D252H]
Screen (c-Src kinase domain; [2]): -2.182 | Screen (EPHB1 kinase domain): -0.7167

PLRAFYLIARV [HLCS_Y635_D634Y_YF]
Screen (c-Src kinase domain; [2]): 1.953

PNRILYGDFWQ [MYH6_Y717_R721W]
Screen (c-Src kinase domain; [2]): -0.3786

PQAVTYATVKH [LILRB4_Y360_K362T]
Screen (c-Src kinase domain; [2]): 2.009

QHVPDYRQNGF [PCDHGA10_Y895_V899G_YF]
Screen (c-Abl kinase domain; [1]): 0.583

QQLQGYVPSNF [FRK_Y99_I100V_YF]
Screen (c-Abl kinase domain; [1]): 0.6322

QRPFVYFFSFL [PTEN_Y176_R173P_YF]
Screen (Fer kinase domain; [5]): -0.4962

REVPVYTFSEP [FAM120B_Y368_D370Y_YF]
Screen (c-Src kinase domain; [2]): 3.398 | Screen (Fer kinase domain; [5]): 3.619 | Screen (EPHB1 kinase domain): 0.7576

RGKDNYETSQL [SPP1_Y225_S224N]
Screen (c-Abl kinase domain; [3]): 0.8642

RHPEVYHHLGI [NVL_Y290_V295I]
Screen (EPHB1 kinase domain): 0.1225

RLDGEYFTLQI [TP53_Y327_P322R]
Screen (c-Src kinase domain; [4]): -0.8354 | Screen (c-Abl kinase domain; [3]): 0.2276

RLLRGYNQSAF [HLA-C_Y137_D138N_YF]
Screen (c-Abl kinase domain; [1]): 1.149

RQNQEYEILMD [KRT39_Y379_L383M]
Screen (EPHB1 kinase domain): 0.4118 | Screen (EPHB2 kinase domain): 0.3975

RRIHRYRGHLW [VHL_Y112_S111R]
Screen (c-Src kinase domain; [4]): -2.928 | Screen (variant relative to reference peptide, measured in the pTyr-Var library screen) (EPHB1 kinase domain): -1.747

RRIHSYRCHLW [VHL_Y112_G114C]
Screen (c-Src kinase domain; [4]): -2.304 | Screen (variant relative to reference peptide, measured in the pTyr-Var library screen) (EPHB1 kinase domain): -1.413

RRIHSYRGHVW [VHL_Y112_L116V]
Screen (c-Src kinase domain; [4]): -1.808 | Screen (variant relative to reference peptide, measured in the pTyr-Var library screen) (EPHB1 kinase domain): -1.04

RRNEEYCLLAS [ITK_Y198_D202A]
Screen (EPHB1 kinase domain): -0.2034

SARVRYLMAEK [LDHB_Y173_F171V]
Screen (c-Abl kinase domain; [1]): 1.358

SILTVYSKDNF [PANK2_Y400_A398T_YF]
Screen (c-Src kinase domain; [4]): -1.709

SPPEVYAIMRG [NTRK1_Y757_C752S]
Screen (c-Src kinase domain; [4]): 0.1672

STLEVYRCHPP [IL21R_Y317_S318R]
Screen (c-Src kinase domain; [2]): -1.75

SVTCTYSLALN [TP53_Y126_P128L]
Screen (c-Src kinase domain; [4]): 1.349

TDIVAYSGWVQ [SPTBN2_Y477_R480W]
Screen (EPHB2 kinase domain): -2.35

TDTAAYEERLR [SPTB_Y474_V478L]
Screen (c-Abl kinase domain; [3]): -0.2404

TGNPAYRSFSN [IL4R_Y497_A492T]
Screen (c-Abl kinase domain; [1]): 1.02

TLPAFYMENFS [GLB1_Y552_G554E]
Screen (c-Abl kinase domain; [1]): 0.2401

TSQSQYSSFRE [CCDC170_Y323_F324S]
Screen (c-Src kinase domain; [2]): -1.483 | Screen (c-Abl kinase domain; [1]): 2.786

TTGGFYSFGGG [KRT24_Y120_A115T_YF]
Screen (c-Src kinase domain; [2]): -0.1401 | Screen (Fer kinase domain; [5]): -0.6603

TTPAVYARVTK [CTRB2_Y246_A250T]
Screen (c-Src kinase domain; [2]): 0.6652

VDSAHYQLLET [DTX3L_Y385_K386Q]
Screen (Fer kinase domain; [5]): 3.227

VIKDKYPKAHF [APTX_Y209_R213H_YF]
Screen (c-Abl kinase domain; [1]): 0.3442

VKPENYRRLDV [VHL_Y175_I180V]
Screen (c-Abl kinase domain; [3]): -5.31

VRFVDYVLFRS [FAM189B_Y361_S358F]
Screen (EPHB1 kinase domain): 1.362

WDLTDYLMKIL [ACTB_Y188_R183W]
Screen (c-Abl kinase domain; [1]): 1.288
